Patent US20220047603A1, “SUBSTITUTED PYRROLOPYRIDINE-DERIVATIVES” (BAYER AKTIENGESELLSCHAFT, priority 2018, published 2022)
pIC50: −log10 of the molar value.

What was measured:
human TBK1 = biological target: T1, human TBK1 (Homo sapiens, UniProt Q9UHD2); assay: TBK1 high ATP kinase assay (TR-FRET); format: biochemical; settings: 1 mM ATP, selectivity assay, 15 min preincubation
T1 construct: Recombinant full-length N-terminally His-tagged human TBK1; His (N); purchased Life Technologies PR5618B; host or cells: insect cells
T1 sequence (Q9UHD2 1-729): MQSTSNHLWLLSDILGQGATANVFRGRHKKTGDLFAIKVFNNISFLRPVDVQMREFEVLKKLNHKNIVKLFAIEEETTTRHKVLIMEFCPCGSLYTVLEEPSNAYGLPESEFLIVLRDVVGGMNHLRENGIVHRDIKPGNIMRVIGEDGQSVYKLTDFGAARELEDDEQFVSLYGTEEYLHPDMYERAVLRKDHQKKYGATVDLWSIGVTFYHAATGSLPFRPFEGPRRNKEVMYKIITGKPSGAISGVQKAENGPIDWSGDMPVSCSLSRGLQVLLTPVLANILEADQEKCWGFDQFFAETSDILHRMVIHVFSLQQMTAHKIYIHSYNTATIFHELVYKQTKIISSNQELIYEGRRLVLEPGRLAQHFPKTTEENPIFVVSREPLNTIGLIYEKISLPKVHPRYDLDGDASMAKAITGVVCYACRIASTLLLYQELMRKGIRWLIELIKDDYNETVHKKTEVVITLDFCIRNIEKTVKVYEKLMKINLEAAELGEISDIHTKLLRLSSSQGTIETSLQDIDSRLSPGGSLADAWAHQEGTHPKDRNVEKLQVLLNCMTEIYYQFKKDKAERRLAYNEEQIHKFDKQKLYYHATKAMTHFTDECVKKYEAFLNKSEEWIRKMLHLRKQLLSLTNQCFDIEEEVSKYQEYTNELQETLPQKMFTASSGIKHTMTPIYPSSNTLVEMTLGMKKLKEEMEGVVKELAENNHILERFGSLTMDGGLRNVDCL
Protocol: TBK1 High ATP Kinase Assay
TBK1-inhibitory activity of compounds of the present invention at a high ATP concentration after preincubation of enzyme and test compounds was quantified employing the TR-FRET-based TBK1 assay as described in the following paragraphs.
Recombinant full-length N-terminally His-tagged human TBK1, expressed in insect cells and purified by Ni-NTA affinity chromatography, was purchased from Life Technologies (Cat. No PR5618B) and used as enzyme. As substrate for the kinase reaction biotinylated peptide biotin-Ahx-[…] (C-terminus in amide form) was used which can be purchased e.g. form the company Biosyntan (Berlin-Buch, Germany).
The concentration of TBK1 was adjusted depending of the activity of the enzyme lot and was chosen appropriate to have the assay in the linear range, typical concentrations were in the range of 0.002-0.004 μg/mL. The reaction was stopped by the addition of 3 μL of a solution of TR-FRET detection reagents (0.33 μM streptavidine-XL665 [Cisbio Bioassays, Codolet, France], 2.5 nM anti-phosho-Serine antibody [Merck Millipore, “STK antibody”, cat. #35-002] and 1.25 nM LANCE EU-W1024 labeled anti-mouse IgG antibody [Perkin-Elmer, product no. AD0077]) in an aqueous EDTA-solution (167 mM EDTA, 0.13% (w/v) bovine serum albumin in 100 mM HEPES/NaOH pH 7.5).

human ROCK-II = biological target: T2, human ROCK-II (Homo sapiens, UniProt O75116); assay: ROCK-II kinase assay (ADP-Glo); format: biochemical; settings: 10 μM ATP, 15 min preincubation, 30 min at 22° C.
T2 construct: human ROCK-II (amino acids 11-552); His6 (N); purchased Eurofins 14-451-K; host or cells: baculovirus infected SF21 insect cells
Protocol: ROCK-II-inhibitory activity of compounds of the present invention was quantified employing the ROCK-II assay as described in the following paragraphs. In essence, the enzyme activity is measured by quantification of the adenosine-di-phosphate (ADP), which is generated as a co-product of the enzyme reaction, via the “ADP-Glo™ Kinase Assay” kit from the company Promega. This detection system works as follows: In a first step the adenosine-tri-phosphate (ATP) not consumed in the kinase reaction is quantitatively converted to cAMP employing an adenylate cyclase (“ADP-Glo-reagent”), then the adenylate cyclase is stopped and the ADP generated in the kinase reaction converted to ATP which generates in a luciferase-based reaction a glow-luminescence signal (“Kinase Detection Reagent”).
As substrate for the kinase reaction the biotinylated peptide biotin-Ahx-[…] (C-terminus in amide form) was used which can be purchased e.g. from the company Biosyntan (Berlin-Buch, Germany).
The concentration of ROCK-II was adjusted depending of the activity of the enzyme lot and was chosen appropriate to have the assay in the linear range, a typical concentration is about 5 nM. The reaction was stopped by the addition of 2.5 μl of “ADP-Glo-reagent” (1:1, 5 fold diluted) and the resulting mixture was incubated at 22° C. for 1 h to convert the ATP not consumed in the kinase reaction completely to cAMP. […] The amount of emitted light was taken as a measure for the amount of ADP generated and thereby for the activity of the ROCK-II.

MAP4K1 = MAP4K1 (Homo sapiens, UniProt Q92918); assay: MAP4K1 binding competition assay (TR-FRET, Tracer 222)
Sequence of MAP4K1 (Q92918 whole entry): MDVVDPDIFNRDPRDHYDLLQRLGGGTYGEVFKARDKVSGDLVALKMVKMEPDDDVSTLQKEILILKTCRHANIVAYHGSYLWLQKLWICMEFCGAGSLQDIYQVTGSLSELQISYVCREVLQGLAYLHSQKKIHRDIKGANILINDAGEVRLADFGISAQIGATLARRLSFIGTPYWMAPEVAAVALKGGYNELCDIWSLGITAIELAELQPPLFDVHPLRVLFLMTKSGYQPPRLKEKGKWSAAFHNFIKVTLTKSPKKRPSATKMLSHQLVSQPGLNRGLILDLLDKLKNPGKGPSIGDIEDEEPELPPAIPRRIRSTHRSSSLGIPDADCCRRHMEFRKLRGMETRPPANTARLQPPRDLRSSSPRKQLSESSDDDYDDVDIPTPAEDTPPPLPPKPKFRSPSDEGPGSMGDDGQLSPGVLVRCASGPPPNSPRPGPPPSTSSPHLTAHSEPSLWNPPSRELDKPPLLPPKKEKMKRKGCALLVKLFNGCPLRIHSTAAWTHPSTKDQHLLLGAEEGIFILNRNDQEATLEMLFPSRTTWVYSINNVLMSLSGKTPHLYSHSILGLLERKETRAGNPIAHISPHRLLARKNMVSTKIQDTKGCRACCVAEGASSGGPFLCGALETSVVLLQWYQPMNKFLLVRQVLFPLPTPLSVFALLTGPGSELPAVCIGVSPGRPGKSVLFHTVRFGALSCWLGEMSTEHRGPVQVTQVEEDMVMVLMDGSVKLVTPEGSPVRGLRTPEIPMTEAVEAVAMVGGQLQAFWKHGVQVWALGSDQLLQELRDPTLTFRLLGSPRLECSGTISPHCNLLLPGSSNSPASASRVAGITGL

T2 sequence (O75116 11-552): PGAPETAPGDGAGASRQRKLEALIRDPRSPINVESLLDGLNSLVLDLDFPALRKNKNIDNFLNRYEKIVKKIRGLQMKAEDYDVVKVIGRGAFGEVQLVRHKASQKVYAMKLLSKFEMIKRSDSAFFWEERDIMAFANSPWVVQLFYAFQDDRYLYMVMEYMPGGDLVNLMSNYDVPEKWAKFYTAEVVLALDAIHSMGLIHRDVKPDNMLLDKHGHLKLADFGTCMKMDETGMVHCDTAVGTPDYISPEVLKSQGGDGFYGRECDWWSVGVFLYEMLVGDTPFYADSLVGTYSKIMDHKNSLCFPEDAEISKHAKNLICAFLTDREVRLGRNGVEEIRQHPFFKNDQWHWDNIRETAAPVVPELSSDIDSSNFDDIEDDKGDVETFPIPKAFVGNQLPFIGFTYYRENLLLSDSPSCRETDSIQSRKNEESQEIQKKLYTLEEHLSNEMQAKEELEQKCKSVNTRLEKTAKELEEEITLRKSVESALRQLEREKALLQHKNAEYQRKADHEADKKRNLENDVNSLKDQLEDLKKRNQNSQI

SMILES	pIC50 (human TBK1)	pIC50 (human ROCK-II)	pIC50 (MAP4K1)
Fc1cc(NC2=NCC3(CCOC3)CO2)cc(F)c1Oc1ccnc2[nH]cc(C3(C(F)(F)F)CC3)c12 (racemic) [Example 5, (+/−)-N-[3,5-difluoro-4-({3-[1-(trifluoromethyl)cyclopropyl]-1H-pyrrolo[2,3-b]pyridin-4-yl}oxy)phenyl]-2,7-dioxa-9-azaspiro[4.5]dec-8-en-8-amine]	< 4.70		
Fc1cc(NC2=NCC3(CCOC3)CO2)cc(F)c1Oc1ccnc2[nH]cc(C3(C(F)(F)F)CCC3)c12 (racemic) [Example 13, (+/−)-N-[3,5-difluoro-4-({3-[1-(trifluoromethyl)cyclobutyl]-1H-pyrrolo[2,3-b]pyridin-4-yl}oxy)phenyl]-2,7-dioxa-9-azaspiro[4.5]dec-8-en-8-amine]	< 4.70	5.92	8.21
Fc1cc(NC2=NCC3(CCOC3)CO2)cc(F)c1Oc1ccnc2[nH]cc(C3(C(F)(F)F)CC3)c12 (single isomer, unassigned; enantiomer 1) [Example 6, N-[3,5-difluoro-4-({3-[1-(trifluoromethyl)cyclopropyl]-1H-pyrrolo[2,3-b]pyridin-4-yl}oxy)phenyl]-2,7-dioxa-9-azaspiro[4.5]dec-8-en-8-amine (single enantiomer 1)]	< 4.70		
Fc1cc(NC2=NCC3(CCOC3)CO2)cc(F)c1Oc1ccnc2[nH]cc(C3(C(F)(F)F)CC3)c12 (single isomer, unassigned; enantiomer 2) [Example 7, N-[3,5-difluoro-4-({3-[1-(trifluoromethyl)cyclopropyl]-1H-pyrrolo[2,3-b]pyridin-4-yl}oxy)phenyl]-2,7-dioxa-9-azaspiro[4.5]dec-8-en-8-amine (single enantiomer 2)]	< 4.70		
Fc1cc(NC2=NCC3(CCOCC3)CO2)cc(F)c1Oc1ccnc2[nH]cc(C3(C(F)(F)F)CCC3)c12 [Example 2, N-[3,5-difluoro-4-({3-[1-(trifluoromethyl)cyclobutyl]-1H-pyrrolo[2,3-b]pyridin-4-yl}oxy)phenyl]-2,9-dioxa-4-azaspiro[5.5]undec-3-en-3-amine]	< 4.70	5.72	8.38
CC1(C)CN=C(Nc2cc(F)c(Oc3ccnc4[nH]cc(C5(C(F)(F)F)CCC5)c34)c(F)c2)OC1 [Example 4, N-[3,5-difluoro-4-({3-[1-(trifluoromethyl)cyclobutyl]-1H-pyrrolo[2,3-b]pyridin-4-yl}oxy)phenyl]-5,5-dimethyl-5,6-dihydro-4H-1,3-oxazin-2-amine]	< 4.70	5.39	8.21
CC1(C)CN=C(Nc2cc(F)c(Oc3ccnc4[nH]cc(C5(C(F)(F)F)CC5)c34)c(F)c2)OC1 [Example 9, N-[3,5-difluoro-4-({3-[1-(trifluoromethyl)cyclopropyl]-1H-pyrrolo[2,3-b]pyridin-4-yl}oxy)phenyl]-5,5-dimethyl-5,6-dihydro-4H-1,3-oxazin-2-amine]	< 4.70		
Fc1cc(NC2=NCC3(COC3)CO2)cc(F)c1Oc1ccnc2[nH]cc(C3(C(F)(F)F)CCC3)c12 [Example 14, N-[3,5-difluoro-4-({3-[1-(trifluoromethyl)cyclobutyl]-1H-pyrrolo[2,3-b]pyridin-4-yl}oxy)phenyl]-2,6-dioxa-8-azaspiro[3.5]non-7-en-7-amine]	< 4.70	5.89	8.16

Results, then the compound that gave them:

pIC50 (human TBK1)	pIC50 (human ROCK-II)	pIC50 (MAP4K1)	SMILES
< 4.70	5.25	8.07	Fc1cc(NC2=NCC3(CCC3)CO2)cc(F)c1Oc1ccnc2[nH]cc(C3(C(F)(F)F)CCC3)c12 [Example 1, N-[3,5-difluoro-4-({3-[1-(trifluoromethyl)cyclobutyl]-1H-pyrrolo[2,3-b]pyridin-4-yl}oxy)phenyl]-6-oxa-8-azaspiro[3.5]non-7-en-7-amine]
< 4.70	5.80	8.40	Fc1cc(NC2=NCC3(CC3)CO2)cc(F)c1Oc1ccnc2[nH]cc(C3(C(F)(F)F)CCC3)c12 [Example 3, N-[3,5-difluoro-4-({3-[1-(trifluoromethyl)cyclobutyl]-1H-pyrrolo[2,3-b]pyridin-4-yl}oxy)phenyl]-5-oxa-7-azaspiro[2.5]oct-6-en-6-amine]
< 4.70	6.30	8.30	Fc1cc(NC2=NCC3(COC3)CO2)cc(F)c1Oc1ccnc2[nH]cc(C3(C(F)(F)F)CC3)c12 [Example 8, N-[3,5-difluoro-4-({3-[1-(trifluoromethyl)cyclopropyl]-1H-pyrrolo[2,3-b]pyridin-4-yl}oxy)phenyl]-2,6-dioxa-8-azaspiro[3.5]non-7-en-7-amine]
< 4.70			Fc1cc(NC2=NCC3(CC3)CO2)cc(F)c1Oc1ccnc2[nH]cc(C3(C(F)(F)F)CC3)c12 [Example 10, N-[3,5-difluoro-4-({3-[1-(trifluoromethyl)cyclopropyl]-1H-pyrrolo[2,3-b]pyridin-4-yl}oxy)phenyl]-5-oxa-7-azaspiro[2.5]oct-6-en-6-amine]
< 4.70			Fc1cc(NC2=NCC3(CCOCC3)CO2)cc(F)c1Oc1ccnc2[nH]cc(C3(C(F)(F)F)CC3)c12 [Example 11, N-[3,5-difluoro-4-({3-[1-(trifluoromethyl)cyclopropyl]-1H-pyrrolo[2,3-b]pyridin-4-yl}oxy)phenyl]-2,9-dioxa-4-azaspiro[5.5]undec-3-en-3-amine]
< 4.70			Fc1cc(NC2=NCC3(CCC3)CO2)cc(F)c1Oc1ccnc2[nH]cc(C3(C(F)(F)F)CC3)c12 [Example 12, N-[3,5-difluoro-4-({3-[1-(trifluoromethyl)cyclopropyl]-1H-pyrrolo[2,3-b]pyridin-4-yl}oxy)phenyl]-6-oxa-8-azaspiro[3.5]non-7-en-7-amine]
